# From publication PMC6767236, “Selective Cannabinoid 2 Receptor Agonists as Potential Therapeutic Drugs for the Treatment of Endotoxin-Induced Uveitis” (Molecules, 2019)
# Like-named read-outs stand apart in the source and are kept apart here.
# How the values were obtained:
# human CB2R [1] = target: T1, human CB2R (Homo sapiens, UniProt P34972); test: PathHunter β-arrestin recruitment assay, hCB2R; assay type: cell-based; conditions: for EC50: read-out: hCB2R: beta arrestin EC50
# T1 construct: bgal (beta-galactosidase fragment of the PathHunter system, named only in the cell line's name); host or cells: CHO-K1 (CHOK1hCB2_bgal)
# T1 sequence (P34972 whole entry, the tested form may be a part): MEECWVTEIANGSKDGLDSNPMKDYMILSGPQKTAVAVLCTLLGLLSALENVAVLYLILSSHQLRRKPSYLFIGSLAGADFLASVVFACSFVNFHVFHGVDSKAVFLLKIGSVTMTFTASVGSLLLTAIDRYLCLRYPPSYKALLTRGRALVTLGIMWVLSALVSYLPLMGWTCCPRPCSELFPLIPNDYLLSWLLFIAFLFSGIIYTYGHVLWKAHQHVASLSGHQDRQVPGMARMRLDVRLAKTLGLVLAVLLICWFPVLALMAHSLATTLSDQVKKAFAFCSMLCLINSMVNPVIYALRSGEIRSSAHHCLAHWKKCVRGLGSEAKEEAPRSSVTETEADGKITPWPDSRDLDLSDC
# Description: (§1) Assays were carried out using the PathHunter hCB1_bgal, hCB2_bgal, or mCB2_bgal CHOK1 β-arrestin recruitment assay kit (DiscoveRx, Fremont, CA, USA) as previously described. A total of 5000 cells per well were seeded in 384-well plates (Perkin Elmer, MA, USA) containing 20 μL cell culture medium and incubated for 16–18 h at 37 °C and 5% CO2. Cells were stimulated with 10 μM of each agonist or 11 increasing concentrations and incubated for 90 min at 37 °C and 5% CO2. […] The cells were incubated for 90 min at 37 °C and 5% CO2. Compounds in DMSO stock solutions were added using a HP D300 Digital Dispenser (Tecan, Mannedorf, Switzerland). The final concentration of organic solvent per assay point was ≤ 0.1%. The PathHunter Detection mixture was used, according to the manufacturer’s protocol, to determine the β-galactosidase enzyme activity. Detection mixture, 12 μL per well, was added and the plate was incubated for 1 h in the dark at room temperature. Chemiluminescence, indicated as relative light unit, was measured on an EnVision multilabel plate reader (Perkin Elmer, MA, USA).
# [2] = Saturation (thermodynamic) solubility in buffer, FaSSIF, FeSSIF; assay type: physicochemical; conditions: thermodynamic from solid
# Description: (§2) Saturation Solubility (= Thermodynamic Solubility)
# (§3) Approximately 8.6 mg test compound per milliliter solvent/vehicle was stirred in HPLC vials (9 × 12 × 32 mm, Waters) at 350 rpm for 15 h. Samples of 10 µL each were taken and microscopically examined for presence of solid particles. If the active pharmacological ingredient (API) dissolved completely, more solid API was added, and stirring was continued for another 15 h. Addition of solid material was repeated up to 96 h or until residual solid particles could be detected. Samples of 0.5 mL were then transferred to Eppendorf Ultrafree filter tubes (Filter: PVDF 0.22 µm) and centrifuged at 14,500 rpm for 10 min. The filtrates were diluted in ethanol and analyzed for content by UPLC. The measurements were also conducted in 0.05 M aqueous phosphate buffer, fasted (FaSSIF), and fed (FeSSIF) simulated gastrointestinal fluid. […]
# [3] = Chemical stability (aqueous stability assay ASTA); assay type: physicochemical; conditions: aqueous buffer, 37 °C
# Description: Chemical Stability (= Aqueous Stability Assay ASTA)
# ASTA is a fully automated assay to determine the 2 h stability of a molecule in aqueous conditions, over the pH range 1–10. Five different pH values are used and the solutions are heated at 37 °C. A compound is classified unstable if, after 2 h, less than 90% of the initial concentration can be found. Samples are first prepared on incubation plates and shaken initially for 10 min at 37 °C.
# Solutions are then transferred to a filter plate (Millipore MSGVN2250, pore size 0.22 µm) and filtrated into V-bottom plates (from ABGene, AB-0800) that are heat-sealed prior to HPLC analysis. The procedure is performed a second time. However, the incubation time at 37 °C for the second plate is increased by 2 h. Samples are taken at time point 0 and 2 h and analyzed by HPLC. […]
# CYP3A4 = CYP3A4 (Homo sapiens, UniProt P08684); test: Cytochrome P450 inhibition assay, CYP3A4; assay type: in vitro ADME; conditions: read-out: IC50 CYP3A4
# Chain of CYP3A4 (P08684 whole entry): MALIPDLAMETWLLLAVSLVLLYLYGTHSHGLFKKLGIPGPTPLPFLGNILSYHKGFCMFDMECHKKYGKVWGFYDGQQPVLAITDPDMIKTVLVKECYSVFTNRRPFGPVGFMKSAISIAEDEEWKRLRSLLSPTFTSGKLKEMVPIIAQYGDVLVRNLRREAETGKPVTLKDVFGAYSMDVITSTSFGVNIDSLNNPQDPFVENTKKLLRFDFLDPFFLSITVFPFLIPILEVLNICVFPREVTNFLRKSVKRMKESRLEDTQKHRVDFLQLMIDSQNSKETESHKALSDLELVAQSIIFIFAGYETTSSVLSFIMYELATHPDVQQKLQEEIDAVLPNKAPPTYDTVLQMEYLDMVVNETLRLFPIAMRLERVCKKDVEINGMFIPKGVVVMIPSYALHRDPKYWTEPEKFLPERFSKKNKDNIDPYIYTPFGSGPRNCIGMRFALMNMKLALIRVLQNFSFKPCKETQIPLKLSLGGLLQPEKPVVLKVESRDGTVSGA
# CYP2C9 = CYP2C9 (Homo sapiens, UniProt P11712); test: Cytochrome P450 inhibition assay, CYP2C9; assay type: in vitro ADME; conditions: read-out: IC50 CYP2C9
# Chain of CYP2C9 (P11712 whole entry): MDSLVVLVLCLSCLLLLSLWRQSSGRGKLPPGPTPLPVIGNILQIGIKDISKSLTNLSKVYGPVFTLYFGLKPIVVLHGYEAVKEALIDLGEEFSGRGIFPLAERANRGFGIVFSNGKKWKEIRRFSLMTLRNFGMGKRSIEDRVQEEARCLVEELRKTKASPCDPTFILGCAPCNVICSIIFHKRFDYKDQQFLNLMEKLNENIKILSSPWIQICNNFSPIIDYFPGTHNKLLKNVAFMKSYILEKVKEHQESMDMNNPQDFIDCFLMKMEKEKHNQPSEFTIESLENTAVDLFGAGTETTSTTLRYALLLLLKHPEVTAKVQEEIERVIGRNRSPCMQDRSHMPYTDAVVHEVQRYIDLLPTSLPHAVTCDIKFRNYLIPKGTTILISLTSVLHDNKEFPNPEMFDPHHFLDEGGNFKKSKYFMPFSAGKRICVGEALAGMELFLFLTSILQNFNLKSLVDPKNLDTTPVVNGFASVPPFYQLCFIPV
# CYP2D6 = CYP2D6 (Homo sapiens, UniProt P10635); test: Cytochrome P450 inhibition assay, CYP2D6; assay type: in vitro ADME; conditions: read-out: IC50 CYP2D6
# Chain of CYP2D6 (P10635 whole entry): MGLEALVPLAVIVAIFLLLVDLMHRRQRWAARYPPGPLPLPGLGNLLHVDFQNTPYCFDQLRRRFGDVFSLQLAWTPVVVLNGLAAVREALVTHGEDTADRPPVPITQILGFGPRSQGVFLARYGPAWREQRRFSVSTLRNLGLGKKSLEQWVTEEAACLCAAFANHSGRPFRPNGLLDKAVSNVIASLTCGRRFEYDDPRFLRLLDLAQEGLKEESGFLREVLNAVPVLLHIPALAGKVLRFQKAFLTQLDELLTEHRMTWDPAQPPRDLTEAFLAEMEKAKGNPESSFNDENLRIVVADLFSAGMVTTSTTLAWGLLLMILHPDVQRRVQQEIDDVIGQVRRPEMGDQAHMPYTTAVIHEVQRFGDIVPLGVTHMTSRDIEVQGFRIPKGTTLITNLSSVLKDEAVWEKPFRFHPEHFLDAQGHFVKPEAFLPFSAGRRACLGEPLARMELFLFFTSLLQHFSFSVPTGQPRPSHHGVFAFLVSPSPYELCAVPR
# [4] = Saturation solubility in selected solvents/vehicles; assay type: physicochemical; conditions: for solubility: thermodynamic from solid, n = 1
# Description: as §2, §3
# human CB2R [5] = target: T1, human CB2R; conditions: * previously published, cited from earlier work; for Ki: [3H]-CP55940 displacement, read-out: hCB2R: Ki
# [6] = * previously published; cited from earlier work
# [7] = cited from earlier work; for PAMPA Peff: * at end of cell: previously published; for PAMPA %Acceptor / PAMPA %Donor / PAMPA %Membrane: * previously published
# [8] = human hepatocytes; * previously published; cited from earlier work
# [9] = cited from earlier work; for Hepatocyte Clearance mouse: mouse hepatocytes, * previously published
# human P-gp = conditions: cited from earlier work; for P-glycoprotein-Mediated Efflux Extraction Ratio human: human P-gp, * previously published
# mouse P-gp = conditions: cited from earlier work; for P-glycoprotein-Mediated Efflux Extraction Ratio mouse: mouse P-gp, * previously published; for P-gp substrate, mouse: underlying data previously published
# [10] = mouse, * previously published, cited from earlier work; for F: oral 3 mg/kg; for T1/2 / Tmax: oral, HU308 5 mg/kg, others 3 mg/kg
# mouse CB2R = mouse CB2R (Mus musculus, UniProt P47936); test: cell-based; assay type: cell-based; set-up: bgal (beta-galactosidase fragment of the PathHunter system, named only in the cell line's name); host or cells: CHO-K1 (CHOK1mCB2_bgal); conditions: for EC50: read-out: mouse CB2R: beta arrestin EC50
# Chain of mouse CB2R (P47936 whole entry, the tested form may be a part): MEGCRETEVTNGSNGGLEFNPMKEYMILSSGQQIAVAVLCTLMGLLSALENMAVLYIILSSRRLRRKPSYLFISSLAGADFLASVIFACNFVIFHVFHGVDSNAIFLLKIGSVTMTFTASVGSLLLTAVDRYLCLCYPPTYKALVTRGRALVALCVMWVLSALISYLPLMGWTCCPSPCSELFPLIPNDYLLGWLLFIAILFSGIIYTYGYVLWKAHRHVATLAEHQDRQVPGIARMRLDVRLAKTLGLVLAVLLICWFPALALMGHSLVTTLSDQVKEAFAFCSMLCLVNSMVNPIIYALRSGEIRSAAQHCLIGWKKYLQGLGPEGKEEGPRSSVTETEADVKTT
# Description: as §1
# [11] = FaSSIF pH 6.5, read-out: Thermodynamic Solubility in FaSSIF (pH 6.5)
# [12] = FeSSIF pH 5.5, read-out: Thermodynamic Solubility in FeSSIF (pH 5.5)
# [13] = aqueous phosphate buffer pH 6.5, read-out: Thermodynamic Solubility in Aqueous Buffer (pH 6.5)
# [14] = pH 1, 2 h, read-out: Chemical Stability in Aqueous Buffer at pH 1 (% remaining after 2 h at 37 °C)
# [15] = pH 4, 2 h, read-out: Chemical Stability in Aqueous Buffer at pH 4 (% remaining after 2 h at 37 °C)
# [16] = pH 6.5, 2 h, read-out: Chemical Stability in Aqueous Buffer at pH 6.5 (% remaining after 2 h at 37 °C)
# [17] = pH 8, 2 h, read-out: Chemical Stability in Aqueous Buffer at pH 8 (% remaining after 2 h at 37 °C)
# [18] = pH 10, 2 h, read-out: Chemical Stability in Aqueous Buffer at pH 10 (% remaining after 2 h at 37 °C)
# [19] = aqueous with cosolvent or surfactant or cyclodextrin, RO6871085 as hydrochloride salt, HU308 crystalline material, > = saturation not achieved, read-out: Solubility in Tocrisolve
# [20] = oil or lipid, RO6871085 as hydrochloride salt, HU308 crystalline material, > = saturation not achieved, read-out: Solubility in MCT (Miglyol 812)
# [21] = pH 6, aqueous with cosolvent or surfactant or cyclodextrin, 200 mM glycocholic acid, 200 mM lecithin in water for injection, pH 6, RO6871085 as hydrochloride salt, read-out: Solubility in Mixed Micelles
# [22] = solubility sample, RO6871085 as hydrochloride salt
# [23] = underlying data previously published
smiles,measurement,setting,value
"Cc1nc([C@](C)(CC2CC2)NC(=O)c2cc(OCC(F)(F)F)c(C3CC3)cn2)no1 [RO6871085, 5-Cyclopropyl-N-[(2S)-1-cyclopropyl-2-(5-methyl-1,2,4-oxadiazol-3-yl)propan-2-yl]-4-(2,2,2-trifluoroethoxy)pyridine-2-carboxamide]",functional behaviour in hCB2R β-arrestin assay,human CB2R [1],partial agonist
same,hCB1R beta arrestin EC50/hCB2R beta arrestin EC50,human CB2R [1],>545
same,hCB2R: beta arrestin efficacy,human CB2R [1],51%
same,EC50,human CB2R [1],55 nM
same,solubility thermodynamic,[2]; [11],37 µg/mL
same,solubility thermodynamic,[2]; [12],56 µg/mL
same,solubility thermodynamic,[2]; [13],3 µg/mL
same,remaining at 2 h,[3]; [14],99%
same,remaining at 2 h,[3]; [15],99%
same,remaining at 2 h,[3]; [16],97%
same,remaining at 2 h,[3]; [17],99%
same,remaining at 2 h,[3]; [18],99%
same,IC50,CYP3A4,37 µM
same,IC50,CYP2C9,8 µM
same,IC50,CYP2D6,34 µM
same,solubility in Tocrisolve 100,[4],good solvent
same,solubility,[4]; [19],> 30000 µg/mL
same,solubility,[4]; [20],2300 µg/mL
same,solubility,[4]; [21],200 µg/mL
same,pH of solution in Mixed Micelles,[4]; [22],6.1
same,pH of solution in Tocrisolve,[4]; [22],1.2
same,Ki,human CB2R [5],76 nM
same,Plasma Protein Binding: FREE Fraction human,[6],1.0%
same,PAMPA Peff,[7],2.44 10*-6 cm/s
same,PAMPA %Acceptor,[7],2%
same,PAMPA %Donor,[7],20%
same,PAMPA %Membrane,[7],78%
same,Hepatocyte Clearance human,[8],17 μL/min/Mio cells
same,Hepatocyte Clearance mouse,[9],27 μL/min/Mio cells
same,clearance in mouse hepatocytes (class in words),[9]; [23],medium
same,P-glycoprotein-Mediated Efflux Extraction Ratio human,human P-gp,1.4
same,"P-gp substrate, human",human P-gp; [23],not a P-gp substrate
same,P-glycoprotein-Mediated Efflux Extraction Ratio mouse,mouse P-gp,1.7
same,"P-gp substrate, mouse",mouse P-gp,not a P-gp substrate
same,F,[10],68%
same,T1/2,[10],8.42 h
same,Tmax,[10],30 min
same,activity in mouse CB2R β-arrestin assay,mouse CB2R,not active
same,EC50,mouse CB2R,> 30 µM
"CNC(=O)[C@@H](NC(=O)c1cc(OCC2(C)COC2)c(C2CC2)cn1)C(C)(C)C [RO6851228, 5-Cyclopropyl-N-[(2S)-3,3-dimethyl-1-(methylamino)-1-oxobutan-2-yl]-4-[(3-methyloxetan-3-yl)methoxy]pyridine-2-carboxamide]",functional behaviour in hCB2R β-arrestin assay,human CB2R [1],inverse agonist
same,hCB2R: beta arrestin efficacy,human CB2R [1],−18%
same,EC50,human CB2R [1],3 nM
same,solubility thermodynamic,[2]; [11],421 µg/mL
same,solubility thermodynamic,[2]; [12],243 µg/mL
same,solubility thermodynamic,[2]; [13],497 µg/mL
same,remaining at 2 h,[3]; [14],93%
same,remaining at 2 h,[3]; [15],100%
same,remaining at 2 h,[3]; [16],99%
same,remaining at 2 h,[3]; [17],100%
same,remaining at 2 h,[3]; [18],100%
same,IC50,CYP3A4,> 50 µM
same,IC50,CYP2C9,> 50 µM
same,IC50,CYP2D6,> 50 µM
same,solubility in Tocrisolve 100,[4],good solvent
same,solubility,"[4]; aqueous with cosolvent or surfactant or cyclodextrin, in demin. water, HU308 crystalline material, read-out: Solubility in HP-beta-CD 15%",35500 µg/mL
same,solubility,"[4]; aqueous with cosolvent or surfactant or cyclodextrin, in demin. water, HU308 crystalline material, read-out: Solubility in PEG400 30%",5900 µg/mL
same,solubility,[4]; [19],15000 µg/mL
same,solubility,[4]; [20],> 19000 µg/mL
same,solubility,[4]; [21],> 1600 µg/mL
same,pH of solution in HP-beta-CD 15%,[4]; solubility sample,7.6
same,pH of solution in PEG400 30%,[4]; solubility sample,7.4
same,pH of solution in Mixed Micelles,[4]; [22],6.6
same,pH of solution in Tocrisolve,[4]; [22],7.3
same,Ki,human CB2R [5],45 nM
same,hCB1R Ki/hCB2R Ki,human CB2R [5]; binding selectivity,147 *
same,Plasma Protein Binding: FREE Fraction human,[6],9.6%
same,PAMPA Peff,[7],5.17 10*-6 cm/s
same,PAMPA %Acceptor,[7],19%
same,PAMPA %Donor,[7],79%
same,PAMPA %Membrane,[7],3%
same,Hepatocyte Clearance human,[8],12 μL/min/Mio cells
same,Hepatocyte Clearance mouse,[9],46 μL/min/Mio cells
same,P-glycoprotein-Mediated Efflux Extraction Ratio human,human P-gp,6.5
same,P-glycoprotein-Mediated Efflux Extraction Ratio mouse,mouse P-gp,25.1
same,"P-gp substrate, mouse",mouse P-gp,strong P-gp substrate
same,F,[10],31%
same,T1/2,[10],1.17 h
same,Tmax,[10],15 min
same,activity in mouse CB2R β-arrestin assay,mouse CB2R,not active
same,EC50,mouse CB2R,> 30 µM
